Several values for one entry are separate records, joined by “and”; a condition that tells them apart may be missing. Equal entries are not always repeated.
Columns and labels:
P. aeruginosa biofilms = assay: Biofilm eradication (MBEC) on peg lid
P. aeruginosa (PAK) = assay: Combination MIC/MBC assay, BIOC76 with fixed gallium citrate; assay type: cell-based, Pseudomonas aeruginosa; details: PAK; alone
Procedure: Combination MIC/MBC assays are useful when you want to look at only a few concentrations of one compound (Gallium citrate) combined with many concentrations of the second compound (BIOC76).
This method also allows us to see the change in both the MIC and MBC of a drug when in combination with another drug. Checkerboard assays only allow us to see changes in the MIC's.
Test articles are added to a 96-well plate so that when a 2× bacterial culture (prepared to 10^6 CFU/ml) is added, the final concentration in all wells was 1×.
All test articles are prepared at 4×→diluted 1:1 when other TA is added (2×) and diluted 1:1 again to 1× when bacteria are added.
TA #1 (Gallium citrate) is prepared and added to entire rows of a plate at a single concentration.
TA #2 (BIOC76) in then prepared and serially diluted in TA #1, so there are 2-fold dilutions of TA #2 combined with a single concentration of TA #1.
Plates were incubated at 37° C. for 18-24 h.
The ΔMIC/IBC is used to show the change in the MIC/IBC of BIOC76 when in combination with Gallium citrate (compared to when BIOC76 is used alone).
ΔMIC/MBC is the fold-decrease in BIOC76 concentration as a result of the combination.
We concluded BIOC76 and gallium citrate maintain synergistic activity so long as the gallium concentration is at least about 0.005 to about 0.02 mg/ml. In this experimental, we set up MIC/MBC assay and serially diluted BIOC76 in rows with fixed concentrations of gallium citrate. […] The results are shown in FIG. 6, and in the following tables: […]

P. aeruginosa strains = assay: MIC/MBC of BIOC76 and gallium citrate alone against 21 strains; assay type: cell-based, Pseudomonas aeruginosa; details: for MBC Rep 1 / MIC Rep 1: alone
Excerpt: Determined the MIC of each test article individually against the strains being tested using the CLSI MIC/MBC method.
In this study, we established the MIC/MiBC's of BIOC76 and gallium citrate alone against each of 21 P. aeruginosa strains. […] The activity of both compounds is also strain-dependent. The results are as follows (the species for each strain is Pseudomonas aeruginosa: […]

[1] = NO release half-life of diazeniumdiolate NO donors in aqueous media at pH 7.4; assay type: physicochemical
Excerpt: The rate of nitric oxide release from diazeniumdiolates can be controlled using a variety of structural features.

[2] = NO storage and release measurement (chemiluminescence nitric oxide analyzer); assay type: physicochemical
Procedure: N-diazeniumdiolates NO scaffolds are pH-triggered NO-release donors. Reacting with proton in the physiological condition (e.g., 37° C., pH 7.4), 1 mole of N-diazeniumdiolate regenerates 1 mole of the parent secondary amine compounds and two moles of NO radicals. The real-time detection of NO was performed by using a chemiluminescence-based nitric oxide analyzer (NOA). The total NO storage and dissociation kinetics of water-soluble NO Donors were measured in physiological condition (pH 7.40, 37° C.). The resulting NO-release parameters (e.g., total NO storage, half-life of NO release, maximum flux, and conversion efficiency) were evaluated for suitability as a pharmaceutical product.
Transfer the solution into the high-pressure vessel and purge the headspace with nitrogen. Mix the solution and set nitric oxide pressure to 25 bar (temp 20° C.). Allow the reaction to run for minimum of 3 days. Stop the reaction by venting the NO. Precipitate the reaction product in acetone (10:1 acetone:reaction mixture). Filter the precipitate and vacuum dry.
We sought to determine whether an NO donor and gallium nitrate have antimicrobial synergy against a lab strain of P. aeruginosa (PAK). The Checkerboard assay (described herein) was used with a hepta-substituted cyclodextrin-based NO donor (hereinafter referred to as BIOC76) having approximately ˜4.7 μmol NO/mg dry powder.

[3] = target: angiotensin-converting enzyme 2 (ACE2) (Homo sapiens, UniProt Q9BYF1); details: ACE2 inhibitor from foodstuffs; cited from earlier work
[4] = N-methyl amine; cited from earlier work
[5] = PAK (N0049), 3-log reduction in biofilm

Chain of angiotensin-converting enzyme 2 (ACE2) (Q9BYF1 18-805): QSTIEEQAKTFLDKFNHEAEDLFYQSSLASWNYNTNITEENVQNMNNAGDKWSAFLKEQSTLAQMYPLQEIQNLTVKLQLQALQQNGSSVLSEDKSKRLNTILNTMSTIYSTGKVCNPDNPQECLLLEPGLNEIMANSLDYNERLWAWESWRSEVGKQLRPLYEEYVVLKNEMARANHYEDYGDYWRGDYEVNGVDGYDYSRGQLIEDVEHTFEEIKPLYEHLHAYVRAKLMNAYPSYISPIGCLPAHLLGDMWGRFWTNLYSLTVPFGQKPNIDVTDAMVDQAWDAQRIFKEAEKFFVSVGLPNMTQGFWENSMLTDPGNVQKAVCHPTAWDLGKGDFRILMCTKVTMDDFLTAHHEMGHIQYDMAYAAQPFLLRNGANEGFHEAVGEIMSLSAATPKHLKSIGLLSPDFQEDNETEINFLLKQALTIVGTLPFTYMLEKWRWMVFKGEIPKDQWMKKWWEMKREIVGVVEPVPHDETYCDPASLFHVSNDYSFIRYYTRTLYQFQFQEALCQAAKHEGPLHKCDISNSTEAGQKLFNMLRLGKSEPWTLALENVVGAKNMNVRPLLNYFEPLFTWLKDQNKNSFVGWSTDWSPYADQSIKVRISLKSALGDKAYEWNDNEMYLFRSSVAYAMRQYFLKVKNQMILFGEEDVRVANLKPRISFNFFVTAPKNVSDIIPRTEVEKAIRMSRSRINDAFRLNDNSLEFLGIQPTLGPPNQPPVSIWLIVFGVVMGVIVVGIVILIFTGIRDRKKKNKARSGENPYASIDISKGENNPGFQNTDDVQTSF
Procedure for P. aeruginosa strain PAK: All test articles are prepared at 4×→diluted 1:1 when other TA is added (2×), and diluted 1:1 again to 1× when bacteria are added
Experimental Design: The MIC of BIOC76 and Gallium nitrate individually, then set up a checkerboard assay testing 49 combinations of BIOC76 and Gallium nitrate concentrations against 10^6 CFU/ml P. aeruginosa strain PAK. Plates were incubated at 37° C. for 18-24 h, and growth was assessed visually.

Compound: NC[C@H]1O[C@H](O[C@H]2[C@H](O)[C@@H](O[C@H]3O[C@H](CO)[C@@H](O)[C@H](N)[C@H]3O)[C@H](N)C[C@@H]2N)[C@H](N)C[C@@H]1O [Tobra, Tobramycin]
- MBEC of Tobra (P. aeruginosa biofilms; [5]): 8 µg/mL and 4 µg/mL

Compound: O=C([O-])CC(O)(CC(=O)[O-])C(=O)[O-].[Ga+3] [Gallium citrate, gallium citrate, reference compound]
- MIC GaCi (P. aeruginosa (PAK)): 65 µg/mL
- killing of P. aeruginosa strains (conclusion) (P. aeruginosa strains; 21 P. aeruginosa strains): does not kill any strain of P. aeruginosa
- mode of activity alone (conclusion) (P. aeruginosa strains; 21 P. aeruginosa strains): largely bacteriostatic
- MBC Rep 1 (P. aeruginosa strains; strain N0047 (AR-BANK #103)): >2000 µg/mL
- MIC Rep 1 (P. aeruginosa strains; strain N0047 (AR-BANK #103)): 250 µg/mL
- MBC Rep 1 (P. aeruginosa strains; strain N0048 (ATCC 19143)): >2000 µg/mL
- MIC Rep 1 (P. aeruginosa strains; strain N0048 (ATCC 19143)): 2000 µg/mL
- MBC Rep 1 (P. aeruginosa strains; strain N0049 (PAK)): >2000 µg/mL
- MIC Rep 1 (P. aeruginosa strains; strain N0049 (PAK)): 65 µg/mL
- MBC Rep 1 (P. aeruginosa strains; strain N0050 (AR-BANK #0095)): >2000 µg/mL
- MIC Rep 1 (P. aeruginosa strains; strain N0050 (AR-BANK #0095)): 250 µg/mL
- MBC Rep 1 (P. aeruginosa strains; strain N0051 (AU32077)): >2000 µg/mL
- MIC Rep 1 (P. aeruginosa strains; strain N0051 (AU32077)): 250 µg/mL
- MIC Rep 1 (P. aeruginosa strains; strain N0052 (AU25834)): >2000 µg/mL
- MBC Rep 1 (P. aeruginosa strains; strain N0053 (AU30524)): >2000 µg/mL
- MIC Rep 1 (P. aeruginosa strains; strain N0053 (AU30524)): 250 µg/mL
- MBC Rep 1 (P. aeruginosa strains; strain N0054 (AU26773)): >2000 µg/mL
- MIC Rep 1 (P. aeruginosa strains; strain N0054 (AU26773)): 125 µg/mL
- MBC Rep 1 (P. aeruginosa strains; strain N0055 (AU22725)): >2000 µg/mL
- MIC Rep 1 (P. aeruginosa strains; strain N0055 (AU22725)): 62.5 µg/mL
- MBC Rep 1 (P. aeruginosa strains; strain N0056 (AU22505)): >2000 µg/mL
- MIC Rep 1 (P. aeruginosa strains; strain N0056 (AU22505)): 1000 µg/mL
- MBC Rep 1 (P. aeruginosa strains; strain N0057 (AU35400)): >2000 µg/mL
- MIC Rep 1 (P. aeruginosa strains; strain N0057 (AU35400)): 65 µg/mL
- MBC Rep 1 (P. aeruginosa strains; strain N0058 (AU32543)): >2000 µg/mL
- MIC Rep 1 (P. aeruginosa strains; strain N0058 (AU32543)): 500 µg/mL
- MBC Rep 1 (P. aeruginosa strains; strain N0059 (AR-BANK #0054)): >2000 µg/mL
- MIC Rep 1 (P. aeruginosa strains; strain N0059 (AR-BANK #0054)): 32.5 µg/mL
- MBC Rep 1 (P. aeruginosa strains; strain N0069 (AR-BANK #0090)): >2000 µg/mL
- MIC Rep 1 (P. aeruginosa strains; strain N0069 (AR-BANK #0090)): 125 µg/mL
- MBC Rep 1 (P. aeruginosa strains; strain N0070 (AR-BANK #0092)): >2000 µg/mL
- MIC Rep 1 (P. aeruginosa strains; strain N0070 (AR-BANK #0092)): 62.5 µg/mL
- MBC Rep 1 (P. aeruginosa strains; strain N0071 (AR-BANK #0100)): >2000 µg/mL
- MIC Rep 1 (P. aeruginosa strains; strain N0071 (AR-BANK #0100)): 125 µg/mL
- MBC Rep 1 (P. aeruginosa strains; strain N0072 (AR-BANK #0105)): >2000 µg/mL
- MIC Rep 1 (P. aeruginosa strains; strain N0072 (AR-BANK #0105)): 500 µg/mL
- MBC Rep 1 (P. aeruginosa strains; strain N0079 (AR-BANK #0108)): >2000 µg/mL
- MIC Rep 1 (P. aeruginosa strains; strain N0079 (AR-BANK #0108)): 125 µg/mL
- MBC Rep 1 (P. aeruginosa strains; strain N0080 (AR-BANK #0110)): >2000 µg/mL
- MIC Rep 1 (P. aeruginosa strains; strain N0080 (AR-BANK #0110)): 125 µg/mL
- MBC Rep 1 (P. aeruginosa strains; strain N0081 (AR-BANK #0111)): >2000 µg/mL
- MIC Rep 1 (P. aeruginosa strains; strain N0081 (AR-BANK #0111)): 250 µg/mL
- MBC Rep 1 (P. aeruginosa strains; strain N0099 (ATCC 29260)): >2000 µg/mL
- MIC Rep 1 (P. aeruginosa strains; strain N0099 (ATCC 29260)): 125 µg/mL

Compound: C[C@@H]1CCC[C@H](C)N1N(O)N=O [Entry 22, 2,6 cis-dimethylpiperdine-NONOate]
- rate of NO release, fold slower than unsubstituted piperidine ([1]; vs entry 19): over 60 fold
- Max Flux [2]: 4933 ppb/mg
- NO Total [2]: 3.7 µmol/mg
- half-life ([2]; physiological condition (pH 7.40, 37° C.), buffer not named, pH 7.4, NO release): 1.3 h

Compound: O=[N+]([O-])[O-].O=[N+]([O-])[O-].O=[N+]([O-])[O-].[Ga+3] [Gallium nitrate, gallium nitrate, reference compound]
- MIC Ga(NO3)3 alone (P. aeruginosa strain PAK): 65 µg/mL
- MIC Ga(NO3)3 combo (P. aeruginosa strain PAK; in combination with BIOC76): 15 µg/mL
- MBEC of Gallium nitrate (P. aeruginosa biofilms; [5]): >16 mg/mL
- effectiveness against P. aeruginosa biofilms (P. aeruginosa biofilms; biofilms grown under aerobic conditions): is not

Compound: N[C@@H](CCN[C@@H](CCN1CC[C@H]1C(=O)O)C(=O)O)C(=O)O [Nicotianamine]
- IC50 [3]: 84 nM

Compound: CC(C)C[C@H](NC(=O)[C@@H]1CCCN1N(O)N=O)C(=O)NCC(N)=O [Entry 49]
- diazeniumdiolate half-life, fold longer than unsubstituted pyrrolidine analog ([1]; vs entry 29): 140 fold
- diazeniumdiolate half-life, fold longer than proline carboxylate analog ([1]; vs entry 30): over 200 fold

Compound: C[C@@H]1CCC[C@H](C)N1C [N-methyl-cis-2,6-dimethylpiperidine]
- pKa [4]: 9.35

Compound: O=NN(O)N1C2CCC1c1ccccc12 [Entry 50]
- fold more stable than monocyclic dimethyl-substituted pyrrolidine analog ([1]; vs entry 23): 8 fold
